Data on four compounds can be found in US11976066B1 (priority 2023, dated 2024).

Values after ≈ are worked out from the molar mass of the structure shown.

The subject of this experiment is multidrug-resistant (MDR) strains of Mycobacterium tuberculosis. The experiment in a line: microbe, parasite or virus in culture. The note with it: 192 h, read-out: MIC MDR-TB, MDR strains, REMA, 8 days incubation at 37° C, Middlebrook 7H9 broth. The experiment is classed as cell-based.
With `CCOC(=O)c1cc(C(=O)c2ccc(F)cc2)n2ccc(N)cc12` [Compound 3a, Ethyl 7-amino-3-(4-fluorobenzoyl)indolizine-1-carboxylate], the MIC was found to be 32 µg/mL (≈ 98.1 µM).

Consider `CCOC(=O)c1cc(C(=O)c2ccccc2[N+](=O)[O-])n2ccc(N)cc12` [Compound 3b, Ethyl 7-amino-3-(2-nitrobenzoyl)indolizine-1-carboxylate], for which the MIC is ~16 µg/mL (≈ 45.3 µM). The result for `COC(=O)c1c(C(=O)OC)c2cc(N)ccn2c1C(=O)c1ccc(OC)cc1` [Compound 3d, Dimethyl 7-amino-3-(4-methoxybenzoyl)indolizine-1,2-dicarboxylate] reads ~32 µg/mL (≈ 83.7 µM). To `CCOC(=O)c1cc(C(=O)c2ccc(Br)cc2)n2ccc(N)cc12` [Compound 3e, Ethyl 7-amino-3-(4-bromobenzoyl)indolizine-1-carboxylate] belongs ~64 µg/mL (≈ 165 µM).
